Data published in patent US11497212B2, “Substituted thiophenyl uracils, salts thereof and the use thereof as herbicidal agents” (Syngenta Crop Protection AG, priority 2017, dated 2022).

How the values were obtained:
Type in all cases: in vivo
[1] = test system: Abutilon theophrasti; assay: Herbicidal action post-emergence (greenhouse pot trial); conditions: application rate 20 g/ha, scored visually after about 3 weeks vs untreated controls
Protocol: (§1) Seeds of mono- and dicotyledonous weed plants and crop plants are laid out in sandy loam soil in plastic or wood-fiber pots, covered with earth and grown under controlled growth conditions in a greenhouse. 2 to 3 weeks after sowing, the trial plants are treated at the one-leaf stage. The compounds of the invention formulated in the form of wettable powders (WP) or emulsion concentrates (EC) were then sprayed onto the green parts of the plant as an aqueous suspension or emulsion with addition of 0.5% additive at a water application rate equivalent to 600 L/ha. After the trial plants had stood for about 3 weeks in the greenhouse, under optimal growth conditions, the effect of the preparations was scored visually by comparison with untreated controls. For example, 100% efficacy=plants have died, 0% efficacy=like control plants. Tables A1 to A15 below show the efficacies of selected compounds of the general formula (I) according to tables I.1 to I.60 on various harmful plants and an application rate corresponding to 80 g/ha or lower that were obtained by the aforementioned trial method.

[2] = test system: Amaranthus retroflexus; assay: as above; conditions: application rate 20 g/ha, scored visually after about 3 weeks vs untreated controls
Protocol: as §1

[3] = test system: Digitaria sanguinalis; assay: as above; conditions: application rate 20 g/ha
Protocol: as §1

[4] = test system: Echinochloa crus-galli; assay: as above; conditions: application rate 20 g/ha, scored visually after about 3 weeks vs untreated controls
Protocol: as §1

[5] = test system: Pharbitis purpurea; assay: as above; conditions: application rate 20 g/ha
Protocol: as §1

[6] = test system: Polygonum convolvulus; assay: as above; conditions: application rate 20 g/ha, scored visually after about 3 weeks vs untreated controls
Protocol: as §1

[7] = test system: Setaria viridis; assay: as above; conditions: application rate 20 g/ha, scored visually after about 3 weeks vs untreated controls
Protocol: as §1

[8] = test system: Stellaria media; assay: as above; conditions: application rate 20 g/ha, scored visually after about 3 weeks vs untreated controls
Protocol: as §1

[9] = test system: Veronica persica; assay: as above; conditions: application rate 20 g/ha
Protocol: as §1

[10] = test system: Viola tricolor; assay: as above; conditions: application rate 20 g/ha
Protocol: as §1

[11] = test system: Oryza sativa; assay: Crop compatibility post-emergence (greenhouse pot trial)
Protocol: as §1, with “plants.” for “plants. Tables A1 to A15 below show the efficacies of selected compounds of the general formula (I) according to tables I.1 to I.60 on various harmful plants and an application rate corresponding to 80 g/ha or lower that were obtained by the aforementioned trial method.”
(§2) Crop plant compatibilities were also scored correspondingly.
(§3) The effects observed are reported here on selected crop plants by comparison with the untreated controls (values in %).

[12] = test system: Triticum aestivum; assay: as above
Protocol: as §1, with “plants.” for “plants. Tables A1 to A15 below show the efficacies of selected compounds of the general formula (I) according to tables I.1 to I.60 on various harmful plants and an application rate corresponding to 80 g/ha or lower that were obtained by the aforementioned trial method.”
as §2, §3

[13] = test system: Matricaria inodora; assay: Herbicidal action post-emergence (greenhouse pot trial); conditions: application rate 20 g/ha, scored visually after about 3 weeks vs untreated controls
Protocol: as §1

[14] = test system: Zea mays; assay: Crop compatibility post-emergence (greenhouse pot trial)
Protocol: as §1, with “plants.” for “plants. Tables A1 to A15 below show the efficacies of selected compounds of the general formula (I) according to tables I.1 to I.60 on various harmful plants and an application rate corresponding to 80 g/ha or lower that were obtained by the aforementioned trial method.”
as §2, §3

Row | Oryza sativa (Efficacy in %) ([11]; application rate 5 g/ha) [%] | Triticum aestivum (Efficacy in %) ([12]; application rate 5 g/ha) [%] | Oryza sativa (Efficacy in %) ([11]; application rate 20 g/ha) [%] | Triticum aestivum (Efficacy in %) ([12]; application rate 20 g/ha) [%] | Zea mays (Efficacy in %) ([14]; application rate 5 g/ha) [%] | Zea mays (Efficacy in %) ([14]; application rate 20 g/ha) [%] | Zea mays (Efficacy in %) ([14]; application rate 80 g/ha) [%] | Compound | Abutilon theophrasti (Efficacy in %) [1] [%] | Amaranthus retroflexus (Efficacy in %) [2] [%] | Digitaria sanguinalis (Efficacy in %) [3] [%] | Echinochloa crus-galli (Efficacy in %) [4] [%] | Pharbitis purpurea (Efficacy in %) [5] [%] | Polygonum convolvulus (Efficacy in %) [6] [%] | Setaria viridis (Efficacy in %) [7] [%] | Stellaria media (Efficacy in %) [8] [%] | Veronica persica (Efficacy in %) [9] [%] | Viola tricolor (Efficacy in %) [10] [%] | Matricaria inodora (Efficacy in %) [13] [%]
1 | 0 | 20 |  |  |  |  |  | Cc1c(C(F)(F)F)n(C)c(=O)n(-c2cc(SCC(C)(C)C(=O)OCC3CCCO3)c(Cl)cc2F)c1=O (centres unmarked) [I.54-71] | 100 | 100 | 80 | 80 | 100 | 100 | 100 | 80 | 100 | 100 | 
2 |  |  | 20 | 20 | 0 |  |  | CCC(Sc1cc(-n2c(=O)c(C)c(C(F)(F)F)n(C)c2=O)c(F)cc1Cl)C(=O)NCC1CCCO1 (centres unmarked) [I.12-221] | 100 | 100 |  |  |  | 100 |  | 80 | 100 | 100 | 100
3 |  |  | 20 | 0 |  | 00 |  | Cc1c(C(F)(F)F)n(C)c(=O)n(-c2cc(SCC(C)(C)C(=O)NCC3CCCO3)c(Cl)cc2F)c1=O (centres unmarked) [I.54-221] | 100 | 100 |  |  | 100 | 100 |  | 80 | 80 |  | 100
4 |  |  | 0 | 10 | 20 |  |  | Cn1c(C(F)(F)F)cc(=O)n(-c2cc(SCC(C)(C)C(=O)OC3CCOCC3)c(Cl)cc2F)c1=O [I.48-127] | 100 | 100 |  |  | 90 | 90 |  | 100 | 100 | 100 | 90
5 |  |  |  | 20 |  |  |  | CC(C)=C(Sc1cc(-n2c(=O)cc(C(F)(F)F)n(C)c2=O)c(F)cc1Cl)C(=O)OCC1CCOC1 (centres unmarked) [I.42-72] | 100 | 100 | 100 | 90 | 100 | 100 | 100 | 90 | 100 | 100 | 100
6 |  |  |  | 20 |  |  |  | CCC(Sc1cc(-n2c(=O)cc(C(F)(F)F)n(C)c2=O)c(F)cc1Cl)C(=O)OCC1CCCS1 (centres unmarked) [I.2-81] | 100 | 100 | 100 | 100 | 100 | 100 | 100 | 100 | 100 | 100 | 100
7 |  |  |  | 10 |  |  |  | CCC(C)C(Sc1cc(-n2c(=O)cc(C(F)(F)F)n(C)c2=O)c(F)cc1Cl)C(=O)OCC1CCCO1 (centres unmarked) [I.5-71] | 100 | 100 | 100 | 90 | 100 | 100 | 90 | 80 | 100 | 100 | 100
8 |  |  |  | 20 |  |  |  | CC(Sc1cc(-n2c(=O)cc(C(F)(F)F)n(C)c2=O)c(F)cc1Cl)C(=O)OC1CCSC1 (centres unmarked) [I.1-123] | 100 | 100 | 80 | 100 | 100 | 100 | 100 | 100 | 100 | 100 | 100
9 |  | 0 | 0 |  | 20 |  |  | Cc1c(C(F)(F)F)n(C)c(=O)n(-c2cc(SCC(C)(C)C(=O)OCC3CCSC3)c(Cl)cc2F)c1=O (centres unmarked) [I.54-82] | 100 | 100 |  |  |  |  |  |  | 80 | 90 | 
10 | 0 |  |  |  |  |  |  | CC(Sc1cc(-n2c(=O)cc(C(F)(F)F)n(C)c2=O)c(F)cc1Cl)C(=O)OCCOCc1ccccc1 (centres unmarked) [I.1-6] | 100 | 100 | 100 | 90 | 100 | 100 | 100 | 90 | 100 | 100 | 100
11 |  | 20 |  |  |  |  |  | CC(C)C(Sc1cc(-n2c(=O)cc(C(F)(F)F)n(C)c2=O)c(F)cc1Cl)C(=O)OCC1CCOC1 (centres unmarked) [I.6-72] | 100 | 100 | 100 | 80 | 100 | 100 | 90 | 90 | 100 | 100 | 100
12 |  |  |  | 20 |  |  |  | CCC(C)C(Sc1cc(-n2c(=O)cc(C(F)(F)F)n(C)c2=O)c(F)cc1Cl)C(=O)OCC1CCOC1 (centres unmarked) [I.5-72] | 100 | 100 | 100 | 90 | 100 | 90 | 80 |  | 100 | 100 | 90
13 |  |  | 10 |  |  |  | 20 | Cn1c(C(F)(F)F)cc(=O)n(-c2cc(SCC(C)(C)C(=O)NCC3CCCO3)c(Cl)cc2F)c1=O (centres unmarked) [I.48-221] | 100 | 90 |  |  |  |  |  | 100 | 100 | 100 | 80
14 |  |  | 0 | 20 |  |  |  | CC(Sc1cc(-n2c(=O)cc(C(F)(F)F)n(C)c2=O)c(F)cc1Cl)C(=O)OCCCOCc1ccccc1 (centres unmarked) [I.1-30] | 100 | 100 | 100 | 100 | 100 | 100 | 100 | 90 | 100 | 100 | 100
15 |  |  | 10 |  |  | 20 |  | CC(Sc1cc(-n2c(=O)cc(C(F)(F)F)n(C)c2=O)c(F)cc1Cl)C(=O)NCC1COC(C)(C)O1 (centres unmarked) [I.1-334] | 100 | 100 |  |  |  | 90 | 90 | 90 | 100 | 100 | 100
